The values below are quoted from earlier work in publication PMC6021394, “Novel haptens and monoclonal antibodies with subnanomolar affinity for a classical analytical target, ochratoxin A” (Scientific Reports, 2018).

With `C[C@@H]1Cc2c(Cl)cc(C(=O)N[C@@H](Cc3ccccc3)C(=O)O)c(O)c2C(=O)O1` [OTA, Ochratoxin A], the tolerable weekly intake (European Food Safety Authority) is 120 ng/kg of body weight. Further, the IARC carcinogenicity classification result (possibly carcinogenic to humans) was “group 2B”.
